For one assay, the system named is SARS-CoV-2. Further details: method as in Wang et al., 2020; Zang et al., 2020; Zu et al., 2020. The note with it: by depleting membrane cholesterol, ref Wang et al., 2020, Zang et al., Zu et al.; cited from earlier work.
The test system of the next assay is FAPs. In words: Cell viability assay (cell counting kit-8) of senescent and non-senescent FAPs treated with inhibitors. It is filed as cell-based, mouse. The settings on record: for IC50: Mus musculus, FAPs. How it is done:
Figure 3 25HC is a senolytic in multiple muscle cell types (A) Targets, compounds, and mechanisms. (B) Timeline of cell viability assay with inhibitors. Cells were pre-cultured for 24 h, treated with Doxo for 24 h, and then treated with inhibitors. Cell viability was analyzed from day 0–7. (C–E) Effects of inhibitors on viability of FAPs, SCs, and HSMMs. Cells were treated with inhibitors at the indicated concentrations. Cell viability was analyzed on day 3 (HSMMs) or 5 (FAPs and SCs). Blue and red dots indicate non-senescent (NS) and senescent (SEN), respectively. The average value at 0 μM for each group was set at 100% cell viability. p values versus NS were obtained using unpaired two-tailed Student’s t test. ∗p < 0.05, ∗∗p < 0.01, and ∗∗∗p < 0.001.
Figure 4 EC50 fitted curves (triplicates) of inhibitor effects at 3 and 7 days in FAPS and SCs EC50 was defined as the concentration of inhibitors that provokes a response halfway between baseline and maximum senolytic activity. EC50 values were determined by four- parameter logistic modeling using GraphPad Prism 8.0.
Hind limb muscles were digested in DMEM containing 0.5% (w/v) collagenase type II (Worthington) for 90 min at 37 °C with trituration and passed through a 40-μm nylon mesh. Erythrocytes were eliminated by treating with BD Pharm Lyse (BD Biosciences). Cells were resuspended in a washing buffer of PBS with 2% FBS and stained with antibodies for 30 min at 4 °C as described ([Kamizaki et al., 2017]). FAPs and SCs were isolated from the suspension by FACS (Aria II, BD Biosciences) using anti-CD31, CD45, Sca-1, PDGFR and VCAM1 antibodies. FAPs were identified as Sca1/PDGFR-positive and CD31-, CD45- and VCAM1-negative cells ([Uezumi et al., 2010]). SCs were identified as VCAM1-positive and CD31-, CD45-, Sca-1 and PDGFR-negative cells ([Liu et al., 2015]).
All experiments were performed in incubators at 37 °C, 3% O2 and 5% CO2. Senescence was induced by treatment with either Doxo (250 nM for 24 h) ([Demaria et al., 2017]) or X-irradiation (10 Gy) ([Limbad et al., 2020]). For cell culture studies using 25HC, it was used at the indicated concentrations in the media.
FAPs and SCs were cultured on Matrigel-coated dishes (BD Biosciences) in growth medium (GM) consisting of DMEM plus 10% FBS, 1% penicillin-streptomycin and 10% MyoCult (STEMCELL Technologies) for 7 days. Human myogenic cell HSMMs (Lonza) were maintained according to the manufacturer’s instructions with SkGM-2 medium (Lonza).
Cell viability was assessed using a cell counting kit-8 from Dojindo Molecular Technologies, Inc (Cat CK04-20). Cells were incubated with culture media + 10% kit cell viability reagent, 150 μL/well in 96-well plates for 2 h. The supernatant was transferred to a new 96-well plate and absorbance read at 450 nm as recommended in the product datasheet.
For orientation: Tetrazolium dyes change colour on reduction, which living cells bring about.

Assay [1] concerns human cardiac microvascular endothelial cells (hCMECs). In words: Cell viability assay of NS and Doxo- or IR-induced senescent hCMECs treated with 25HC. It is filed as cell-based. The note with it: 10 μM after 15 days of treatment; Doxo or IR induced senescence. The procedure:
Figure 7 25HC treatment timeline and its effects on NS and SEN hCMECs, hLSCs, hRPTECs, and hACs All cell types were treated with either DMSO, 250 nM Doxo or 10-Gy IR at the times shown. 25HC treatment was started 24 h after Doxo or IR treatment. Cell viability was measured every 3–5 days for 15 days. Optimal treatment times for maximum senolysis are shown for each cell type: day 15 for hCMECs, day 3 for hLSCs, day 9 for hRPTECs and day 12 for hACs. For qRT-PCR: mean ± SE, n =4, ∗p< 0.05, ∗∗p< 0.01, ∗∗∗p<0.001, ∗∗∗∗p<0.0001 by Dunnett’s multiple comparisons test vs DMSO or NS, For cell viability assays: mean ± SE, n =3, ∗∗p< 0.01, ∗∗∗p<0.001, ∗∗∗∗p<0.0001 vs 0 mM by student’s t test.
All experiments were performed in incubators at 37 °C, 3% O2 and 5% CO2. Senescence was induced by treatment with either Doxo (250 nM for 24 h) ([Demaria et al., 2017]) or X-irradiation (10 Gy) ([Limbad et al., 2020]). […]
Cell viability was assessed using a cell counting kit-8 from Dojindo Molecular Technologies, Inc (Cat CK04-20). […] The supernatant was transferred to a new 96-well plate and absorbance read at 450 nm as recommended in the product datasheet. […]
Supplementary Fig. 10 (related to Fig. 6-7). […] Cel l vi abi l i ty was measured every 3–5 days until 15 days. […] Cel l vi abi l i ty was measured every 3–5 days until 15 days. […]

Broadly, the IC50 is the concentration that inhibits the measured activity by half. Read a low IC50 as greater potency in that assay. As for `C[C@H](CCCC(C)(C)O)[C@H]1CC[C@H]2[C@@H]3CC=C4C[C@@H](O)CC[C@]4(C)[C@H]3CC[C@]12C` [25HC, 25-hydroxycholesterol], the SARS-CoV-2 replication result with SARS-CoV-2 was “inhibits SARS-CoV-2 replication”. Moreover, the “viability of senescent versus non-senescent FAPs” value in the assay on FAPs (Doxo-induced senescence, viability on day 5, 25HC at concentrations between 0.1 and 1 μM) is given as “specifically decreased the viability of senescent FAPs”. For the same molecule, the IC50 with FAPs (72 h, 3 days in culture) stood at 1700 nM; with FAPs (168 h, 7 days in culture), 1200 nM. Further, in assay [1], the “senolysis in hCMECs” value is listed as “induced significant senolysis”.

These data come from publication PMC8851282, “Senolysis induced by 25-hydroxycholesterol targets CRYAB in multiple cell types” (iScience, 2022).
